Columns and labels:
PDK1 = PDK1 (Homo sapiens (Human), UniProt O15530); experiment: PDK1 kinase assay (coupled PDK1/AKT/FAM-crosstide assay, IMAP fluorescence polarization); assay type: biochemical; settings: inhibition of phospo-PDK1 in vitro
Outline: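 GST-tagged PDK1 (aa 51-359, 0.75 nM) was coupled to unphosphorylated GST-AKT2 140-467-PIFtide (10 nM) and 100 nM FAM-crosstide at 40 μM ATP, in Tris pH 7.2 buffer, for 30 min at 25 °C. Crosstide phosphorylation was read by IMAP fluorescence polarization (ΔmP) and fitted with a 4-parameter curve.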

[1] = tested on: phospho-akt (Thr308) in PC-3 cells; experiment: Inhibition of phospho-akt (Thr308) in PC-3 cells, MSD phospho-akt 308 ELISA kit; assay type: cell-based; settings: Homo sapiens; inhibition of P308 Akt in PC-3 cells, 2 hours, no serum, MSD; read-out: EC50
Outline: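 PC-3 cells (15,000/well, overnight in 10% FBS medium) treated 2 h with three-fold diluted compounds in serum-free medium; DMSO high and 5 μM wortmannin low controls. Lysates captured on BSA-blocked MSD plates overnight at 4 °C, then 1 h antibody detection at RT; phospho-Akt Thr308 read by MSD electrochemiluminescence.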

Chain of PDK1 (O15530 51-359): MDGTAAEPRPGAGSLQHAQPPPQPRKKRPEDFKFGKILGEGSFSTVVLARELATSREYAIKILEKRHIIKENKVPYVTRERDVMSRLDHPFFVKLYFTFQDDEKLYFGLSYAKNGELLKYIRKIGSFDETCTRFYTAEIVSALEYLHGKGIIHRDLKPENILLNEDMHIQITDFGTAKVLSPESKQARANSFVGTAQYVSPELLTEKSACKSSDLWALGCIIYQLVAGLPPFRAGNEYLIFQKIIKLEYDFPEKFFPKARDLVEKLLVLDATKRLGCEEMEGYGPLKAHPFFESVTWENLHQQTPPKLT

Structure (SMILES) | IC50 (PDK1) | EC50 [1]
C[C@H](NC(=O)c1cn(C)nc1NCc1ccc(-c2ccc3ncnc(N)c3c2)s1)c1ccc(F)c(F)c1 [Example 11.4, (S)-3-(((5-(4-aminoquinazolin-6-yl)thiophen-2-yl)methyl)amino)-N-(1-(3,4-difluorophenyl)ethyl) 1-methyl-1H-pyrazole-4-carboxamide] | < 100 nM | 1000 to 10000 nM
C[C@H](NC(=O)c1cn(C)nc1NCc1ccc(-c2ccc3ncnc(N)c3c2)s1)c1ccc(F)cc1 [Example 11.5, 3-({[5-(4-aminoquinazolin-6-yl)thiophen-2-yl]methyl}amino)-N-[(1S)-1-(4-fluorophenyl)ethyl]-1-methyl-1H-pyrazole-4-carboxamide] | < 100 nM | 1000 to 10000 nM
Cn1nc(Nc2ncccc2C(=O)NCc2ccc(F)c(F)c2)c2cc(-c3c[nH]c4ncccc34)ccc21 [Example 14.1, N-(3,4-difluorobenzyl)-2-(1-methyl-5-(1H-pyrrolo[2,3-b]pyridin-3-yl)-1H-indazol-3-ylamino)nicotinamide] | < 100 nM | 1000 to 10000 nM
Cn1nc(Nc2ncccc2C(=O)NCc2ccc(F)c(F)c2)c2cc(-c3ccc4ncnc(N)c4c3)ccc21 [Example 14.2, 2-(5-(4-aminoquinazolin-6-yl)-1-methyl-1H-indazol-3-ylamino)-N-(3,4-difluorobenzyl)-nicotinamide] | < 100 nM | > 10000 nM
O=C1Nc2cc(/C=C/CNc3ncccc3C(=O)NCc3ccc(F)c(F)c3)ccc2/C1=C/c1cnc[nH]1 [Example 15.1, 2-((E)-3-((Z)-3-((1H-imidazol-5-yl)methylene)-2-oxoindolin-6-yl)allylamino)-N-(3,4-difluorobenzyl)nicotinamide] | < 100 nM | < 1000 nM
C[C@H](NC(=O)c1cc(C(F)(F)F)cnc1NC/C=C/c1ccc2c(c1)NC(=O)/C2=C\c1cnc[nH]1)c1ccc(F)c(F)c1 [Example 15.2, 2-((E)-3-((Z)-3-((1H-imidazol-5-yl)methylene)-2-oxoindolin-6-yl)allylamino)-N-((S)-1-(3,4-difluorophenyl)ethyl)-5-(trifluoromethyl)nicotinamide] | 100 to 1000 nM | < 1000 nM
C[C@H](NC(=O)c1cc(C#N)cnc1NC/C=C/c1ccc2c(c1)NC(=O)C2)c1ccc(F)cc1 [Example 15.3, (S,E)-5-cyano-N-(1-(4-fluorophenyl)ethyl)-2-(3-(2-oxoindolin-6-yl)allylamino)nicotinamide] | > 5000 nM | > 10000 nM
C[C@H](NC(=O)c1cc(C#N)cnc1NC/C=C/c1ccc2c(c1)NC(=O)/C2=C\c1cnc[nH]1)c1ccc(F)cc1 [Example 15.4, 2-((E)-3-((Z)-3-((1H-imidazol-5-yl)methylene)-2-oxoindolin-6-yl)allylamino)-5-cyano-N-((S)-1-(4-fluorophenyl)ethyl)nicotinamide] | < 100 nM | < 1000 nM
C[C@H](NC(=O)c1cccnc1NC/C=C/c1ccc2c(c1)NC(=O)/C2=C\c1cnc[nH]1)c1ccc(F)c(F)c1 [Example 15.5, 2-((E)-3-((Z)-3-((1H-imidazol-5-yl)methylene)-2-oxoindolin-6-yl)allylamino)-N-((S)-1-(3,4-difluorophenyl)ethyl)nicotinamide] | < 100 nM | < 1000 nM
Cc1[nH]c(/C=C2\C(=O)Nc3cc(/C=C/CNc4ncccc4C(=O)NCc4ccc(F)c(F)c4)ccc32)c(C)c1C(=O)O [Example 15.6] | > 5000 nM | < 1000 nM
Cc1nc[nH]c1/C=C1\C(=O)Nc2cc(/C=C/CNc3ncccc3C(=O)NCc3ccc(F)c(F)c3)ccc21 [Example 15.7, N-(3,4-Difluoro-benzyl)-2-((E)-3-{3-[1-(5-methyl-3H-imidazol-4-yl)-meth-(Z)-ylidene]-2-oxo-2,3-dihydro-1H-indol-6-yl}-allylamino)-nicotinamide] | < 100 nM | < 1000 nM
Cc1nc(/C=C2\C(=O)Nc3cc(/C=C/CNc4ncccc4C(=O)NCc4ccc(F)c(F)c4)ccc32)c[nH]1 [Example 15.8, N-(3,4-Difluoro-benzyl)-2-((E)-3-{3-[1-(2-methyl-1H-imidazol-4-yl)-meth-(Z)-ylidene]-2-oxo-2,3-dihydro-1H-indol-6-yl}-allylamino)-nicotinamide] | < 100 nM | < 1000 nM
Cc1cnc(/C=C2\C(=O)Nc3cc(/C=C/CNc4ncccc4C(=O)NCc4ccc(F)c(F)c4)ccc32)[nH]1 [Example 15.9, N-(3,4-Difluoro-benzyl)-2-((E)-3-{3-[1-(5-methyl-1H-imidazol-2-yl)-meth-(Z)-ylidene]-2-oxo-2,3-dihydro-1H-indol-6-yl}-allylamino)-nicotinamide] | < 100 nM | 1000 to 10000 nM
Cc1n[nH]cc1/C=C1\C(=O)Nc2cc(/C=C/CNc3ncccc3C(=O)NCc3ccc(F)c(F)c3)ccc21 [Example 15.10, N-(3,4-Difluoro-benzyl)-2-((E)-3-{3-[1-(3-methyl-1H-pyrazol-4-yl)-meth-(Z)-ylidene]-2-oxo-2,3-dihydro-1H-indol-6-yl}-allylamino)-nicotinamide] | < 100 nM | < 1000 nM
CCc1nc(C)c(/C=C2\C(=O)Nc3cc(/C=C/CNc4ncccc4C(=O)NCc4ccc(F)c(F)c4)ccc32)[nH]1 [Example 15.11, N-(3,4-Difluoro-benzyl)-2-((E)-3-{3-[1-(2-ethyl-5-methyl-3H-imidazol-4-yl)-meth-(Z)-ylidene]-2-oxo-2,3-dihydro-1H-indol-6-yl}-allylamino)-nicotinamide] | < 100 nM | < 1000 nM
O=C1Nc2cc(/C=C/CNc3ncccc3C(=O)NCc3ccc(F)c(F)c3)ccc2/C1=C/c1ncc[nH]1 [Example 15.12, N-(3,4-Difluoro-benzyl)-2-((E)-3-{3-[1-(1H-imidazol-2-yl)-meth-(Z)-ylidene]-2-oxo-2,3-dihydro-1H-indol-6-yl}-allylamino)-nicotinamide] | < 100 nM | 1000 to 10000 nM
Cc1nc(/C=C2\C(=O)Nc3cc(/C=C/CNc4ncccc4C(=O)NCc4ccc(F)c(F)c4)ccc32)[nH]c1C [Example 15.13, N-(3,4-Difluoro-benzyl)-2-((E)-3-{3-[1-(4,5-dimethyl-1H-imidazol-2-yl)-meth-(Z)-ylidene]-2-oxo-2,3-dihydro-1H-indol-6-yl}-allylamino)-nicotinamide] | < 100 nM | 1000 to 10000 nM
Cc1nc(C)c(/C=C2\C(=O)Nc3cc(/C=C/CNc4ncccc4C(=O)NCc4ccc(F)c(F)c4)ccc32)[nH]1 [Example 15.14, N-(3,4-Difluoro-benzyl)-2-((E)-3-{3-[1-(2,5-dimethyl-3H-imidazol-4-yl)-meth-(Z)-ylidene]-2-oxo-2,3-dihydro-1H-indol-6-yl}-allylamino)-nicotinamide] | < 100 nM | < 1000 nM
O=C1Nc2cc(/C=C/CNc3ncccc3C(=O)NCc3cncc(F)c3)ccc2/C1=C/c1cnc[nH]1 [Example 15.15, 2-((E)-3-((Z)-3-((1H-imidazol-5-yl)methylene)-2-oxoindolin-6-yl)allylamino)-N-((5-fluoropyridin-3-yl)methyl) nicotinamide] | < 100 nM | < 1000 nM
N#Cc1cnc(NC/C=C/c2ccc3c(c2)NC(=O)/C3=C\c2cnc[nH]2)c(C(=O)O)c1 [Example 15.16, 2-((E)-3-((Z)-3-((1H-imidazol-5-yl)methylene)-2-oxoindolin-6-yl)allylamino)-5-cyanonicotinic acid] | 100 to 1000 nM | > 10000 nM
CCN(CC)CCNC(=O)c1c(C)[nH]c(/C=C2\C(=O)Nc3cc(/C=C/CNc4ncccc4C(=O)NCc4ccc(F)c(F)c4)ccc32)c1C [Example 15.17, 2-((E)-3-((Z)-3-((4-(2-(diethylamino)ethylcarbamoyl)-3,5-dimethyl-1H-pyrrol-2-yl)methylene)-2-oxoindolin-6-yl)allylamino)-N-(3,4-difluorobenzyl)nicotinamide] | < 100 nM | 1000 to 10000 nM
Cc1[nH]c(/C=C2\C(=O)Nc3cc(/C=C/CNc4ncccc4C(=O)NCc4ccc(F)c(F)c4)ccc32)c(C)c1C(=O)N1CCOCC1 [Example 15.18, N-(3,4-Difluoro-benzyl)-2-((E)-3-{3-[1-[3,5-dimethyl-4-(morpholine-4-carbonyl)-1H-pyrrol-2-yl]-meth-(Z)-ylidene]-2-oxo-2,3-dihydro-1H-indol-6-yl}-allylamino)-nicotinamide] | < 100 nM | < 1000 nM
COCCNC(=O)c1c(C)[nH]c(/C=C2\C(=O)Nc3cc(/C=C/CNc4ncccc4C(=O)NCc4ccc(F)c(F)c4)ccc32)c1C [Example 15.19, N-(3,4-difluorobenzyl)-2-((E)-3-((Z)-3-((4-(2-methoxyethylcarbamoyl)-3,5-dimethyl-1H-pyrrol-2-yl]-methylene)-2-oxoindolin-6-yl)allylamino) nicotinamide] | < 100 nM | < 1000 nM
C[C@H](NC(=O)c1nccnc1NC/C=C/c1ccc2c(c1)NC(=O)/C2=C\c1cnc[nH]1)c1ccc(F)cc1 [Example 15.20, 3-((E)-3-((Z)-3-((1H-imidazol-5-yl)methylene)-2-oxoindolin-6-yl)allylamino)-N-((S)-1-(4-fluorophenyl)ethyl) pyrazine-2-carboxamide] | < 100 nM | < 1000 nM
O=C1Nc2cc(/C=C/CNc3ncccc3C(=O)NCc3ccc(F)cc3)ccc2/C1=C/c1cnc[nH]1 [Example 15.21, 2-((E)-3-((Z)-3-((1H-imidazol-5-yl)methylene)-2-oxoindolin-6-yl)allylamino)-N-(4-fluorobenzyl)nicotinamide] | < 100 nM | < 1000 nM
